Reference: US11214565B2, “Compound, compositions, and methods” (Denali Therapeutics Inc., priority 2015, dated 2022)

Target: LRRK2 G2019S enzyme (Homo sapiens (Human), UniProt Q5S007, G2019S)
Experiment: LRRK2 G2019S TR-FRET biochemical kinase assay (LRRKtide substrate)
Details: 5 nM LRRK2, 134 μM ATP, 60 minute reaction, 23° C.
Protocol: LRRK2 G2019S enzyme, Substrate (LRRKtide), ATP, TR-FRET dilution buffer, pLRRKtide antibody, 384-well assay plate, and DMSO.
50 mM Tris pH 7.5, 10 mM MgCl2, 1 mM EGTA, 0.01% Brij-35, 2 mM DTT, 5 nM LRRK2, 134 μM ATP, 60 minute reaction time, 23° C. reaction temperature, and 10 μL total reaction volume.
1×TR-FRET dilution buffer, 10 mM EDTA, 2 nM antibody, 23° C. reaction temperature, and 10 μL total reaction volume.
Compound solutions were prepared by initially diluting to 1 mM with DMSO. 35 μL of reference compound solution, 35 μL of test compound solution, and 35 μL HPE were successively added to the source plate (384-well assay plate, Labcyte). The plates were centrifuged at 2500 rpm for 1 minute and sealed in foil. POD was used to perform a 3.162 fold serial dilution and 100 nL of reference compound solution, test compound solution, HPE and ZPE were transferred to assay plates. The assay plate was centrifuged at 2500 rpm for 1 minute, and sealed with foil.
To perform the enzyme reaction, 5 μL of LRRKtide substrate and kinase mixture in assay buffer was added to all wells of the assay plate. The plate was centrifuged to concentrate the mixture at the bottom of the wells. The assay plate was incubated at 23° C. for 20 minutes. Following incubation, 5 μL of 2×ATP in assay buffer was added to each well, and plates were centrifuged to concentrate the mixture at the bottom of the wells. The plate was incubated at 23° C. for 60 minutes.
To perform the detection of the reaction, EDTA completely mixed in TR-FRET dilution buffer was added to antibody reagent. 10 μL of detection reagent was added to all wells of each well of the assay-plate and the plate was centrifuged to concentrate the mixture at the bottom of the wells. The plate was then incubated at 23° C. for 60 minutes. Plates were read on Perkin Elmer Envision 2104 instrument in TR-FRET mode using a 340 nm excitation filter, 520 nm fluorescence emission filter, and 490 or 495 nm terbium emission filter.
B-2, C2, and D-4 respectively.

Sequence of LRRK2 G2019S enzyme (Q5S007 whole entry G2019S): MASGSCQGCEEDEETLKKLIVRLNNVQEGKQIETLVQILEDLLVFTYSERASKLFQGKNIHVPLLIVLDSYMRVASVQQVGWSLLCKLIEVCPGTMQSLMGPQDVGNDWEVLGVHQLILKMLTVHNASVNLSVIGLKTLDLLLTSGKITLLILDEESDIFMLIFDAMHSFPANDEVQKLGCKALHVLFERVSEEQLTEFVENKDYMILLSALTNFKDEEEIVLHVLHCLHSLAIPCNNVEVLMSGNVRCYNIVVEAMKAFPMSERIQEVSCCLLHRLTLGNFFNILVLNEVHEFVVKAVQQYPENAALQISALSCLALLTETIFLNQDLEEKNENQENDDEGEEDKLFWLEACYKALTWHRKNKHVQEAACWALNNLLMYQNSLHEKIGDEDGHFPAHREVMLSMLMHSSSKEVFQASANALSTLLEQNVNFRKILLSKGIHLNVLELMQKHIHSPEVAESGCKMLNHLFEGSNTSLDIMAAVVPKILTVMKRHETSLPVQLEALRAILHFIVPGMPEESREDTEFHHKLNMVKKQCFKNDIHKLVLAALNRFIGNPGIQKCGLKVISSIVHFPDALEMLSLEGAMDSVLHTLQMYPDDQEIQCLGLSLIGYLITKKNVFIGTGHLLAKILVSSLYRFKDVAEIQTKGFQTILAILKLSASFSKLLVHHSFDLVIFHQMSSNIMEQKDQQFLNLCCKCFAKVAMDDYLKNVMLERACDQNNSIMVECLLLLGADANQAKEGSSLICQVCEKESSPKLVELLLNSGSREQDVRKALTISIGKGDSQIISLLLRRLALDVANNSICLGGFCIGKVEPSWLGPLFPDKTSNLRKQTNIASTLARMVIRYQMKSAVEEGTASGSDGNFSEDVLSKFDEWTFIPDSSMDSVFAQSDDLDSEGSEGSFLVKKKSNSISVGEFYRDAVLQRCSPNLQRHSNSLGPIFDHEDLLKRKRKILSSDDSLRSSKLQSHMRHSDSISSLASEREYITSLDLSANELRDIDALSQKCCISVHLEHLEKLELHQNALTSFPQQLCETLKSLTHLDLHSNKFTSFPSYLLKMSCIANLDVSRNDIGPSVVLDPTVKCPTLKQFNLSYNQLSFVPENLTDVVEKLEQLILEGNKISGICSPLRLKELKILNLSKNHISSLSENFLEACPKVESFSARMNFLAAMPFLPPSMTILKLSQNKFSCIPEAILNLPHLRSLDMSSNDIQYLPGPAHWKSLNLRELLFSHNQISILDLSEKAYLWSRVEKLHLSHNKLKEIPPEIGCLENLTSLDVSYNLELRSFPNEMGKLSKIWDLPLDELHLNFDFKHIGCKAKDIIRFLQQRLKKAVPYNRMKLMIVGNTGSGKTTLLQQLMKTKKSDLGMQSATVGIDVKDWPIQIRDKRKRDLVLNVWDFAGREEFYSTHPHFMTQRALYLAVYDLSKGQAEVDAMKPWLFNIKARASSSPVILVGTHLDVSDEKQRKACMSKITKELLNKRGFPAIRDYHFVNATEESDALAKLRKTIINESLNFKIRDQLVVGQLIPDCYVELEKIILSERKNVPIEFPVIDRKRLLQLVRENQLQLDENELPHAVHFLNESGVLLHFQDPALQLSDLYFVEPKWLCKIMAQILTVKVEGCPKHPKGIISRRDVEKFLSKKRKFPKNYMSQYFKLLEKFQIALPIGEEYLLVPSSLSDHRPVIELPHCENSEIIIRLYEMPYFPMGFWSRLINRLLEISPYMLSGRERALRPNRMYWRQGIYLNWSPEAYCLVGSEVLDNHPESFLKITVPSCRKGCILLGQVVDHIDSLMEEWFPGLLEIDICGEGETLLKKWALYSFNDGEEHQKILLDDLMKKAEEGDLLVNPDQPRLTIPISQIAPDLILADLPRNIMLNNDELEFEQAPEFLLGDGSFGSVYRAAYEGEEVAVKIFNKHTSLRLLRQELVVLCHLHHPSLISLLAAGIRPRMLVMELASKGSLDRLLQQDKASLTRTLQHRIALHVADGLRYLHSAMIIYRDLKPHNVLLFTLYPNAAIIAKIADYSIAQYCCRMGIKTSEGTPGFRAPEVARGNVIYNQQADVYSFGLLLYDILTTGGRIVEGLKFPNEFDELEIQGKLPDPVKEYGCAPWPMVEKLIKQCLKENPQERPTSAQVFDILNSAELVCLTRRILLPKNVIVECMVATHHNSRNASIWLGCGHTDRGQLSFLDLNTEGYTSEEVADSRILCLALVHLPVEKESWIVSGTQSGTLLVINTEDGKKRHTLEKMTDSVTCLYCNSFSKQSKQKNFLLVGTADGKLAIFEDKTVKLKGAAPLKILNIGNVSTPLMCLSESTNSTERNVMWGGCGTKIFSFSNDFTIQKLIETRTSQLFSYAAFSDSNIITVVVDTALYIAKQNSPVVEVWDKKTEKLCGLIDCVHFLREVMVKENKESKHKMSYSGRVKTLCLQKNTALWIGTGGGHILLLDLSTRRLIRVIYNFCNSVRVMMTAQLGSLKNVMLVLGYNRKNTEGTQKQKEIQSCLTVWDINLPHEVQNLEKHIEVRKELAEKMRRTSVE

IC50 (Table D-4) | IC50 (Table A-2) | SMILES
< 30 nM | – | CCNc1nc(Nc2cnn(C3CCn4ccnc43)c2C)ncc1C(F)(F)F (racemic) [Compound D-22, N2-(1-(6,7-dihydro-5H-pyrrolo[1,2-a]imidazol-7-yl)-5-methyl-1H-pyrazol-4-yl)-N4-ethyl-5-(trifluoromethyl)pyrimidine-2,4-diamine]
– | > 60 nM | Cc1nn(C(C)(C)C#N)cc1Nc1ncc(C(F)(F)F)c([C@@H]2C[C@H]2F)n1 (single isomer, unassigned) [Compound A-12, 2-(4-((4-(2-fluorocyclopropyl)-5-(trifluoromethyl)pyrimidin-2-yl)amino)-3-methyl-1H-pyrazol-1-yl)-2-methylpropanenitrile]
– | > 60 nM | Cc1nn(C(C)(C)C#N)cc1Nc1ncc(C(F)(F)F)c([C@H]2C[C@@H]2F)n1 (single isomer, unassigned) [Compound A-13, 2-(4-((4-(2-fluorocyclopropyl)-5-(trifluoromethyl)pyrimidin-2-yl)amino)-3-methyl-1H-pyrazol-1-yl)-2-methylpropanenitrile]
– | > 60 nM | CC1(O)CCCC1n1ncc(Nc2ncc(C(F)(F)F)c(C3CC3)n2)c1Cl (single isomer, unassigned) [Compound A-49, 2-(5-chloro-4-((4-cyclopropyl-5-(trifluoromethyl)pyrimidin-2-yl)amino)-1H-pyrazol-1-yl)-1-methylcyclopentanol]
– | < 30 nM | CC1(O)CCCC1n1ncc(Nc2ncc(C(F)(F)F)c(C3CC3)n2)c1Cl (single isomer, unassigned) [Compound A-50, 2-(5-chloro-4-((4-cyclopropyl-5-(trifluoromethyl)pyrimidin-2-yl)amino)-1H-pyrazol-1-yl)-1-methylcyclopentanol]
– | < 30 nM | CCN1CC(n2ncc(Nc3ncc(C(F)(F)F)c(C4CC4)n3)c2C)CCC1=O (single isomer, unassigned) [Compound A-59]
– | < 30 nM | CCN1CC(n2ncc(Nc3ncc(C(F)(F)F)c(C4CC4)n3)c2C)CCC1=O (single isomer, unassigned) [Compound A-60]
– | 30 to 60 nM | CCN1CC(n2cc(Nc3ncc(C(F)(F)F)c(C4CC4)n3)c(C)n2)CCC1=O (single isomer, unassigned) [Compound A-61]
– | > 60 nM | CCN1CC(n2cc(Nc3ncc(C(F)(F)F)c(C4CC4)n3)c(C)n2)CCC1=O (single isomer, unassigned) [Compound A-62]
– | 30 to 60 nM | FC(F)(F)c1cnc(Nc2cnn([C@H]3CN(C4COC4)CCC3(F)F)c2Cl)nc1C1CC1 (single isomer, unassigned) [Compound A-64, N-(5-chloro-1-(4,4-difluoro-1-(oxetan-3-yl)piperidin-3-yl)-1H-pyrazol-4-yl)-4-cyclopropyl-5-(trifluoromethyl)pyrimidin-2-amine]
– | < 30 nM | FC(F)(F)c1cnc(Nc2cnn([C@@H]3CN(C4COC4)CCC3(F)F)c2Cl)nc1C1CC1 (single isomer, unassigned) [Compound A-65, N-(5-chloro-1-(4,4-difluoro-1-(oxetan-3-yl)piperidin-3-yl)-1H-pyrazol-4-yl)-4-cyclopropyl-5-(trifluoromethyl)pyrimidin-2-amine]
– | > 60 nM | Cc1nn([C@@H]2CCn3ccnc32)cc1Nc1ncc(C(F)(F)F)c(C2CC2)n1 (single isomer, unassigned) [Compound A-78]
– | < 30 nM | Cc1nn([C@H]2CCn3ccnc32)cc1Nc1ncc(C(F)(F)F)c(C2CC2)n1 (single isomer, unassigned) [Compound A-79]
– | < 30 nM | Cc1nn([C@@H]2CCn3cnnc32)cc1Nc1ncc(C(F)(F)F)c(C2CC2)n1 (single isomer, unassigned) [Compound A-82]
– | < 30 nM | Cc1nn([C@H]2CCn3cnnc32)cc1Nc1ncc(C(F)(F)F)c(C2CC2)n1 (single isomer, unassigned) [Compound A-83]
> 60 nM | – | CNc1nc(Nc2cn(C3CCn4ccnc43)nc2C)ncc1C(F)(F)F (single isomer, unassigned) [Compound D-3, N2-[1-[6,7-dihydro-5H-pyrrolo[1,2-a]imidazol-7-yl]-3-methyl-1H-pyrazol-4-yl]-N4-methyl-5-(trifluoromethyl)pyrimidine-2,4-diamine]
< 30 nM | – | CNc1nc(Nc2cn(C3CCn4ccnc43)nc2C)ncc1C(F)(F)F (single isomer, unassigned) [Compound D-4, N2-[1-[6,7-dihydro-5H-pyrrolo[1,2-a]imidazol-7-yl]-3-methyl-1H-pyrazol-4-yl]-N4-methyl-5-(trifluoromethyl)pyrimidine-2,4-diamine]
> 60 nM | – | CCNc1nc(Nc2cn(C3CCn4ccnc43)nc2C)ncc1C(F)(F)F (single isomer, unassigned) [Compound D-23, N2-(1-(6,7-dihydro-5H-pyrrolo[1,2-a]imidazol-7-yl)-3-methyl-1H-pyrazol-4-yl)-N4-ethyl-5-(trifluoromethyl)pyrimidine-2,4-diamine]
< 30 nM | – | CCNc1nc(Nc2cn(C3CCn4ccnc43)nc2C)ncc1C(F)(F)F (single isomer, unassigned) [Compound D-24, N2-(1-(6,7-dihydro-5H-pyrrolo[1,2-a]imidazol-7-yl)-3-methyl-1H-pyrazol-4-yl)-N4-ethyl-5-(trifluoromethyl)pyrimidine-2,4-diamine]
– | < 30 nM | Cc1nn(C(C)(C)C#N)cc1Nc1ncc(C(F)(F)F)c(C2CC2)n1 [Compound A-1, 2-[4-[(5-trifluoromethyl-4-cyclopropyl-pyrimidin-2-yl)amino]-3-methyl-pyrazol-1-yl]-2-methyl-propanenitrile]
– | < 30 nM | Cc1nn(C(C)(C)C#N)cc1Nc1ncc(Cl)c(C2CC2)n1 [Compound A-2, 2-[4-[(5-chloro-4-cyclopropyl-pyrimidin-2-yl)amino]-3-methyl-pyrazol-1-yl]-2-methyl-propanenitrile]
– | > 60 nM | Cc1nn(C(C)(C)C#N)cc1Nc1ncc(C#N)c(C2CC2)n1 [Compound A-3, 2-[[1-(1-cyano-1-methyl-ethyl)-3-methyl-pyrazol-4-yl]amino]-4-cyclopropyl-pyrimidine-5-carbonitrile]
– | 30 to 60 nM | Cc1nn(C(C)(C)C#N)cc1Nc1ncc(C(F)(F)F)c(C2=CCCC2)n1 [Compound A-4, 2-[4-[[4-(cyclopenten-1-yl)-5-(trifluoromethyl)pyrimidin-2-yl]amino]-3-methyl-pyrazol-1-yl]-2-methyl-propanenitrile]
– | 30 to 60 nM | Cn1nc(C(C)(C)C#N)cc1Nc1ncc(C(F)(F)F)c(C2CC2)n1 [Compound A-5, 2-(5-((4-cyclopropyl-5-(trifluoromethyl)pyrimidin-2-yl)amino)-1-methyl-1H-pyrazol-3-yl)-2-methylpropanenitrile]
– | < 30 nM | Cc1nn(S(C)(=O)=O)cc1Nc1ncc(C(F)(F)F)c(C2CC2)n1 [Compound A-7, 4-cyclopropyl-N-(3-methyl-1-methylsulfonyl-pyrazol-4-yl)-5-(trifluoromethyl)pyrimidin-2-amine]
– | < 30 nM | Cc1nn(C(C)(C)c2ncn(C)n2)cc1Nc1ncc(C(F)(F)F)c(C2CC2)n1 [Compound A-8, 4-cyclopropyl-N-(3-methyl-1-(2-(1-methyl-1H-1,2,4-triazol-3-yl)propan-2-yl)-1H-pyrazol-4-yl)-5-(trifluoromethyl)pyrimidin-2-amine]
